“And” between values parts separate entries of the source, which are not always exact repeats. Identical values can stand only once. Like-named read-outs stand apart in the source and are kept apart here. Marks after values point to notes of the source that are not given here. Each block holds one molecule with its values, some of them ahead of it.
What was measured:
[1] = cited from earlier work
[2] = system: EGFR phosphorylation at position Y1068 and ERK 1/2 in A431 cells; experiment: Western blot of EGFR signaling (pEGFR Y1068, pERK 1/2) after EGF stimulation; assay type: cell-based, Human; conditions: A431 serum-starved, 2 h drug, EGF 50 ng/mL 10 min, normoxic
[3] = Cyclic voltammetry, cathodic peak potential Co(III)/Co(II); assay type: physicochemical; conditions: 10 mM phosphate buffer pH 7.40, 0.1 M KCl, scan rate 30 mV/s, 1.5 mM complex
Experimental: As the reduction process is crucial for the activation of cobalt(III)-based prodrug systems, the redox properties of the complexes were investigated to elucidate the effects of ligand methylation at different positions. Cyclic voltammetry measurements were performed in aqueous solution at pH 7.40 (10 mM phosphate buffer with 0.1 M KCl). […] Also, at a much higher scan speed of 1000 mV/s, the redox processes were still completely irreversible (Figure S5).
The compounds were dissolved in 10 mM phosphate buffer (pH 7.40), with 0.1 M KCl as the supporting electrolyte, to obtain a final concentration of 1.5 mM. Electrochemical experiments were conducted on an EG&G PARC 273A potentiostat/galvanostat with scan rates of 30 and 1000 mV/s at room temperature. Argon was bubbled through the solution before every measurement to remove oxygen. A three-electrode configuration cell was used with a glassy carbon electrode as the working electrode, which was polished before every measurement. The reference electrode was Ag/AgCl/KCl (3.5 M), and the auxiliary electrode was a platinum wire. Electrodes were conditioned regularly in 1 M H2SO4 for 5–10 cycles between voltage limits of −1.0 and 1.0 V at a scan rate of 100 mV/s. The system was calibrated with 1.5 mM K3[Fe(CN)6] for every experiment. Redox potentials measured relative to the Ag/AgCl/KCl (3.5 M) reference electrode were converted for potentials against NHE by the addition of 0.205 V. Measurements were repeated at least three times, and the mean values were calculated.

[4] = system: A431 cancer cells; experiment: MTT-based cytotoxicity assay under different O2 levels; assay type: cell-based, Human; conditions: A431, 72 h
[5] = system: A431 cancer cells; conditions: cited from earlier work
[6] = Proton dissociation constants by pH-potentiometric titration; assay type: physicochemical; conditions: pH-potentiometry, 25.0 °C, I = 0.1 M (KCl)
Text: After reductive activation of the cobalt(III) prodrugs, it is essential to investigate whether the formed cobalt(II) complexes indeed can release the coordinated targeting ligand. For this reason, we selected two ternary systems as models to study the potential liberation of the (N,N) ligand from the mixed-ligand cobalt complex upon reduction. Thus, the aqueous stability of several cobalt(II) complexes was investigated under strictly anaerobic conditions. Due to the limited water solubility of cobalt(II) chloride complexes with L, model ligands with better solubility, namely, MeEn and PhEn, were used. First, deprotonation processes of the acetlyacetone (Hacac) and the fully protonated MeEn and PhEn ligands were followed at pH 2.0–11.5 (Table 2).
(§1) For determination of the proton dissociation (Ka) and formation constants (β) pH-potentiometric measurements were carried out at 25 ± 0.1 °C and an ionic strength (I) of 0.10 M (KCl) to keep the activity coefficients constant. A carbonate-free KOH solution (0.10 M) was used for titrations. The exact concentrations of HCl and KOH were determined by pH-potentiometric titrations. A Metrohm-combined electrode (type 6.0234.100) connected to an Orion 710A pH-meter and a computer-controlled Methrom 665 Dosimat buret (increment, 1 μL; precision, 2 μL) were used for the pH-potentiometric measurements. […] The determined average water ionization constant (pKw = 13.76 ± 0.01) corresponds well to the literature data.[37] Titration points included in the calculations gave a reproducibility within 0.005 pH unit. Titrations were performed in the pH range of 2.0–11.5, and the initial volume of the samples was 10 mL. Binary systems contained 1 or 2 mM ligand, and metal:ligand ratios of 1:1, 1:2, 1:3, and 1:4 were used. In the ternary systems, the cobalt(II) concentration was 1 mM and the two types of ligands (A, acac, and B, MeEn, or PhEn) were varied as follows: 1:1:1, 1:2:1, 1:1:2, and 1:2:2 Co(II):A:B. The samples were degassed by bubbling purified argon through them for 10 min prior to the measurements, and argon was also passed over the solutions during the titrations.

[7] = Overall stability constants of binary and ternary cobalt(II) complexes by pH-potentiometry; assay type: physicochemical; conditions: for fraction of ligand coordinated to cobalt(II): 1:2:1 cobalt(II)-acac-ligand system, computed from stability constants; for log β [Co(II)A2B]0 ternary complex / log β [Co(II)AB2]+ ternary complex / log β [Co(II)AB]+ ternary complex: A = acac, B = MeEn or PhEn
Experimental: Following the determination of the stability constants for the binary complexes (Table 2), overall stability constants for the mixed-ligand complexes formed in the cobalt(II)–acac–MeEn and cobalt(II)–acac–PhEn ternary systems were calculated on the basis of pH-potentiometric titrations. Three types of complexes were formed, [CoAB]^+, [CoA2B], and [CoAB2]^+, where “A” denotes acac and “B” refers to MeEn or PhEn. Concentration distribution curves in Figure 5 were computed using the stability constants of the 1:2:1 cobalt(II)–acac–PhEn composition that corresponds to the reduced form of Co(II)(acac)2L^0. […] For the 1:2:1 cobalt(II)–acac–MeEn system, ∼11% are still coordinated to cobalt(II) at pH 7.4 (Figure S6). However, it has to be mentioned that these calculations were performed for 1 mM cobalt(II) (where the titrations were performed), and the amount of the intact ternary complex further decreases with lower concentrations [e.g., in the latter system at pH 7.4 and 0.1 mM cobalt(II), the coordinated MeEn fraction is only ∼2%].
as §1
The stoichiometry of the complexes and overall stability constants were established by the computer program Hyperquad2013.[53] For the general equilibrium β(MpLqHr) is defined as [drawing 2] 1 where M denotes the cobalt(II) ion and L the completely deprotonated ligand. The calculations were performed as reported in our previous work.[54]

[8] = biological target: EGFR (ErbB1) (Homo sapiens, UniProt P00533); experiment: Cell-free kinase inhibition assay (ZLYTE, Select Screen); assay type: biochemical; conditions: 10 μM ATP (10-fold excess of ATP), 1% DMSO
[9] = I = 0.1 M NaClO4; cited from earlier work
[10] = pH 7.0, NAD+/NADH or GSSG/GSH couple
[11] = 25.0 °C, I = 0.1 M (KCl), anaerobic
[12] = Homo sapiens, A-431, 1% O2, read-out: IC50 hypoxia with 1% O2
[13] = Homo sapiens, A-431, 21% O2, read-out: IC50 normoxia

EGFR (ErbB1), sequence (P00533 25-1210): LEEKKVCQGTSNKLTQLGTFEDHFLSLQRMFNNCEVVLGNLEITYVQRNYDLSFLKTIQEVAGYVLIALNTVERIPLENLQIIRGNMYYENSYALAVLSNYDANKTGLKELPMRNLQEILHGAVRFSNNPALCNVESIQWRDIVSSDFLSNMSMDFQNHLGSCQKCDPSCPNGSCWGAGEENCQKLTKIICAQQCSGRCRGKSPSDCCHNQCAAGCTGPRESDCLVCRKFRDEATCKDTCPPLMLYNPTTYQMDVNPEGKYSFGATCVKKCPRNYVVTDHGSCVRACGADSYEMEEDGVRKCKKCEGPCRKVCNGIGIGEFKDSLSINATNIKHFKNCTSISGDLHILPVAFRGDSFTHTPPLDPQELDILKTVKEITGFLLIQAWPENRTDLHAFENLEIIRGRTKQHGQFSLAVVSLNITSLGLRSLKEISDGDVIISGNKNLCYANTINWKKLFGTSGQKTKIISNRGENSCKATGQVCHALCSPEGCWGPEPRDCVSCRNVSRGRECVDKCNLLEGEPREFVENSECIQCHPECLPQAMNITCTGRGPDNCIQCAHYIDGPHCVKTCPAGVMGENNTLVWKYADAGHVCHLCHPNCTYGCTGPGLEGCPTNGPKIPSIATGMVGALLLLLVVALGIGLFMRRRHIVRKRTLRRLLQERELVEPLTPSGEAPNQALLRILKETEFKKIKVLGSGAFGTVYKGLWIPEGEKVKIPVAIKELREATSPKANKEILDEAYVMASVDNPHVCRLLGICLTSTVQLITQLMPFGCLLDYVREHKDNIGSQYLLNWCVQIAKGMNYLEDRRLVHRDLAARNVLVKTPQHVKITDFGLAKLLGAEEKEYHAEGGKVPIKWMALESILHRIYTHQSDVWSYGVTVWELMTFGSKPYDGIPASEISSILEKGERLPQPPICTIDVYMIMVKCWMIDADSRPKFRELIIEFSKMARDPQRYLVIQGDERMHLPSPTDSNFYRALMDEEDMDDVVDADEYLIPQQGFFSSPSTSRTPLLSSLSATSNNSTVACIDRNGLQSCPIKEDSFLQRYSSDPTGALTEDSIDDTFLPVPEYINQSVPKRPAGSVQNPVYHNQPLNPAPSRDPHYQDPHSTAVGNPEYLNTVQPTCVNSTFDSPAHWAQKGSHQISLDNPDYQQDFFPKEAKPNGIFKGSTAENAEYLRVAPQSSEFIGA

Molecule: O=C1O[C@H]([C@@H](O)CO)C(O)=C1O [AA, ascorbic acid]
- formal potential, higher values suggested by recent literature [1]: 0.35–0.50 V
- formal potential ([1]; dehydro-L-ascorbate/AA at pH 7.0): 0.06 V

- cathodic peak potential (Ec) vs NHE [3]: 17 mV
Molecule: CC(=O)[C-](C)C(C)=O.CC(=O)[C-](C)C(C)=O.CNCCNc1ccc2ncnc(Nc3cccc(Br)c3)c2c1.[Cl-].[Co+3] [Co(Meacac)2MeL^+, Bis(3-methyl-2,4-pentanedionato) N^4-(3-Bromophenyl)-N^6-[2-(methylamino)ethyl]quinazoline-4,6-diamine Cobalt(III) Chloride]
- EGFR-inhibitory potential (pEGFR, pERK 1/2) [2]: distinctly weakened EGFR-inhibitory potential
- increase in cytotoxicity at 0.1% O2 compared to normoxic conditions [4]: 2.9 fold
- IC50 ([4]; 0.1% O2, read-out: IC50 hypoxia with 0.1% O2): 19.9 ± 1 µM
- IC50 ([4]; 1% O2, read-out: IC50 hypoxia with 1% O2): ~32 µM and 32 µM
- IC50 ([4]; 5% O2, read-out: IC50 hypoxia with 5% O2): 55.2 ± 1.4 µM
- IC50 ([4]; 21% O2, read-out: IC50 normoxia): 58.6 ± 4.4 µM

Molecule: [Cl-].[Cl-].[Co+2] [CoCl2]
- cytotoxic activity [5]: No significant cytotoxic activity

Molecule: N[C@@H](CCC(=O)N[C@@H](CS)C(=O)NCC(=O)O)C(=O)O [GSH, Glutathione]
- formal potential [1, 10]: −0.24 V

- pKa1 [6]: 7.04 ± 0.02
- pKa2 [6]: 9.98 ± 0.01
- fraction of ligand coordinated to cobalt(II) ([7]; pH 7.4, 0.1 mM cobalt(II)): ~2%
- fraction of ligand coordinated to cobalt(II) ([7]; pH 7.4, 1 mM cobalt(II)): ~11%
- log β [Co(II)L2] binary complex [7, 11]: 9.15 ± 0.02
- log β [Co(II)L3] binary complex [7, 11]: 12.94 ± 0.04
- log β [Co(II)L] binary complex [7, 11]: 5.26 ± 0.01
- log β [Co(II)A2B]0 ternary complex ([7]; 25.0 °C, I = 0.1 M (KCl)): 12.73 ± 0.09
- log β [Co(II)AB2]+ ternary complex ([7]; 25.0 °C, I = 0.1 M (KCl)): 13.20 ± 0.12
- log β [Co(II)AB]+ ternary complex ([7]; 25.0 °C, I = 0.1 M (KCl)): 9.82 ± 0.05
Molecule: CNCCN [MeEn, N-methylethylenediamine]

- IC50 [8]: 0.00041 µM
Molecule: CNCCNc1ccc2ncnc(Nc3cccc(Br)c3)c2c1.Cl.Cl [MeL, N^4-(3-Bromophenyl)-N^6-[2-(methylamino)ethyl]quinazoline-4,6-diamine Dihydrochloride]
- EGFR-inhibitory potential (pEGFR, pERK 1/2) [2]: potent EGFR inhibition
- anticancer activity relative to L [4]: approximately twice as effective as L
- IC50 ([4]; Homo sapiens, A-431, 0.1% O2, read-out: IC50 hypoxia with 0.1% O2): 5.4 ± 0.8 µM
- IC50 [4, 12]: 5.5 ± 0.4 µM
- IC50 ([4]; Homo sapiens, A-431, 5% O2, read-out: IC50 hypoxia with 5% O2): 8.7 ± 1.2 µM
- IC50 [4, 13]: 6.9 ± 1.8 µM

Molecule: NC(=O)C1=CN([C@@H]2O[C@H](COP(=O)(O)OP(=O)(O)OC[C@H]3O[C@@H](n4cnc5c(N)ncnc54)[C@H](O)[C@@H]3O)[C@@H](O)[C@H]2O)C=CC1 [NADH, reduced nicotinamide adenine dinucleotide]
- formal potential [1, 10]: −0.32 V

- pKa1 [6]: 1.85 ± 0.01 ^c
- pKa2 [6]: 9.34 ± 0.01 ^c
- fraction of ligand coordinated to cobalt(II) ([7]; pH 7.4, 1 mM cobalt(II)): < 1%
- log β [Co(II)L2] binary complex [7, 11]: 6.75 ± 0.09
- log β [Co(II)L] binary complex [7, 11]: 3.63 ± 0.05
- log β [Co(II)A2B]0 ternary complex ([7]; 25.0 °C, I = 0.1 M (KCl)): 12.08 ± 0.09
- log β [Co(II)AB2]+ ternary complex ([7]; 25.0 °C, I = 0.1 M (KCl)): 11.29 ± 0.13
- log β [Co(II)AB]+ ternary complex ([7]; 25.0 °C, I = 0.1 M (KCl)): 8.03 ± 0.15
Molecule: NCCNc1ccccc1 [PhEn, N-phenylethylenediamine]

Molecule: CC(=O)C=C(C)[O-].CC(=O)C=C(C)[O-].NCCN.[Co+2] [[Co(II)(acac)2en]]
- cytotoxic activity ([5]; A431 cells, both normoxia and hypoxia): No significant cytotoxic activity

Molecule: CC(=O)CC(C)=O [acac, acetylacetone]
- pKa1 [6]: 8.80 ± 0.01 ^b
- pKa [9]: 8.82
- log β [Co(II)L2] binary complex [7, 11]: 8.66 ± 0.05 ^b
- log β [Co(II)L] binary complex [7, 11]: 5.05 ± 0.02 ^b

Molecule: C#Cc1cccc(Nc2ncnc3cc(OCCOC)c(OCCOC)cc23)c1 [erlotinib, reference compound]
- IC50 [4, 12]: 14.4 ± 4 µM
- IC50 [4, 13]: 13.3 ± 4.7 µM

- cathodic peak potential (Ec) vs NHE [3]: -152 mV
Molecule: Bis(2,4-pentanedionato) (Methyl-1,2-ethanediamine) Cobalt(III) Hexafluorophosphate [Co(acac)2MeEn^+]

- cathodic peak potential (Ec) vs NHE [3]: -200 mV
Molecule: Bis(3-methyl-2,4-pentanedionato) (Methyl-1,2-ethanediamine) Cobalt(III) Hexafluorophosphate [Co(Meacac)2MeEn^+]
